Data from patent US4678792A, “Quaternary 3,4-dihydro-isoquinolinium salts” (Dr. Karl Thomae GmbH, priority 1984, dated 1987).
Read-outs that look alike come from different tables or passages of the source.

Legend:
Thrombocyte aggregation = experiment: Antithrombotic activity: collagen-induced thrombocyte aggregation in platelet-rich plasma after oral administration (Born and Cross); format: in vivo, rat; conditions: for inhibition at 5 mg/kg / inhibition at 10 mg/kg: po, read-out: Percentage inhibition of aggregation
Method: 1. Antithrombotic activity (see BORN and CROSS, J. Physiol. 170, 397 (1964)):
Groups of three male rats weighing about 500 g are given the test substances, suspended in 1% tylose (A and B) or in distilled water (C), in a volume of 0.2 ml per 100 g of the weight of the animal, by esophageal tube. Shortly before the blood samples are taken (1 hour after administration of the substance) the animals are anesthetised with sodium pentobarbital (50 mg/kg i.p.). After the abdomen has been opened up, the required quantity of blood is taken by puncturing the aorta.
The blood is treated with sodium citrate (0.2% final concentration) to prevent it coagulating. Since the aggregation before and after administration of the substance in rats cannot be measured in the same animal, sets of animals from which the plasma has been pooled are compared. In this way, multiple measurements can be made.
Thrombocyte aggregation is measured in platelet-rich plasma (PRP) (quantity of plasma for each test: 1 ml). In order to obtain the PRP, the blood is centrifuged for 10 minutes at 1,000 to 1,200 revolutions per minute (approx. 150 g). The low-platelet plasma for calibrating the aggregometer is obtained by centrifuging (4,000 rpm for 10 minutes).
The pattern of the decrease in optical density of the platelet suspension after the addition of collagen is measured photometrically and recorded. The height of the curve in mm measured at the moment of maximum light transmittance is the measurement of the intensity of aggregation. A 6-channel aggregometer is used for the measurements.
The quantity of collagen (2 to 5 μl/ml of plasma) is such that an irreversible reaction curve is obtained.
The sets of animals treated with the substance are compared with untreated control groups.

[1] = Tolerability: toxic side effects at the maximum dosages administered; format: in vivo
mouse = experiment: Approximate acute toxicity on the mouse after oral administration; format: in vivo; conditions: 250 mg/kg oral, group of 10 animals, observation period of 14 days
Method: The approximate acute toxicity of substance B is tested on the mouse after oral administration of a dosage of 250 mg/kg to a group of 10 animals.

[2] = 5 mg/kg p.o., rat, 1 hour after administration, collagen, control 108 (B), 113 (C)
[3] = 10 mg/kg p.o., rat, 1 hour after administration, collagen, control 130 (A), 110 (B)
[4] = maximum dosages administered (10 mg/kg p.o.)

SMILES | Intensity of Aggregation, Height of curve (opt. density), Substance (Thrombocyte aggregation; [2]) | inhibition at 5 mg/kg (Thrombocyte aggregation; 5 mg/kg p.o., rat, 1 hour after administration, collagen) | toxic side effects ([1]; in vivo, po, 10 mg/kg) | Intensity of Aggregation, Height of curve (opt. density), Substance (Thrombocyte aggregation; [3]) | inhibition at 10 mg/kg (Thrombocyte aggregation; Rattus norvegicus, 1 h) | toxic side effects [1, 4] | inhibition at 5 mg/kg (Thrombocyte aggregation; Rattus norvegicus, 1 h) | Acute toxicity, deaths (mouse)
COc1cc2c(cc1OC)CC[N+](Cc1cc(OC)c(OC)c(OC)c1)=C2.[Cl-] [C, 2-(3,4,5-Trimethoxybenzyl)-6,7-dimethoxy-3,4-dihydro-isoquinolinium chloride] | 10 mm | 89% | do not show any toxic side effects | – | – | – | – | –
COc1cc2c(cc1OC)CC[N+](Cc1ccccc1Cl)=C2.O=S(=O)([O-])O [A, 2-(2-Chlorobenzyl)-6,7-dimethoxy-3,4-dihydro-isoquinolinium hydrogensulphate] | – | – | – | 69 mm | 47% | do not show any toxic side effects | – | –
Clc1ccccc1C[N+]1=Cc2ccccc2CC1.O=S(=O)([O-])O [B, 2-(2-Chlorobenzyl)-3,4-dihydro-isoquinolinium hydrogensulphate] | 0 mm | – | – | 0 mm | 100% | do not show any toxic side effects | 100% | None of the animals died
